Source: ChEMBL document CHEMBL1201862, “PubChem BioAssay data set” (2004)
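Cells were grown in 96-well plates and exposed to each compound for 48 hours at five concentrations; endpoints were interpolated linearly between bracketing concentrations, or set to the highest concentration if not reached. At the GI50, growth is halved.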 The source made the active and inactive calls. No stated cut-off is given here; in the data, active = GI50 up to about 1.1 µM and inactive = higher.

Tests used:
Assay in all cases: growth of human tumour cells (NCI), 48 h
786-0 = test system: 786-0
A498 = test system: A498
A549 = test system: A549
ACHN = test system: ACHN
BT-549 = test system: BT-549
CAKI-1 = test system: CAKI-1
CCRF-CEM = test system: CCRF-CEM
COLO 205 = test system: COLO 205
DU-145 = test system: DU-145
EKVX = test system: EKVX
HCT-116 = test system: HCT-116
HCT-15 = test system: HCT-15
HOP-62 = test system: HOP-62
HOP-92 = test system: HOP-92
HT-29 = test system: HT-29
Hs-578T = test system: Hs-578T
IGROV-1 = test system: IGROV-1
K562 = test system: K562
KM12 = test system: KM12
LOX IMVI = test system: LOX IMVI
M14 = test system: M14
MDA-MB-231 = test system: MDA-MB-231
MDA-MB-435 = test system: MDA-MB-435
MDA-N = test system: MDA-N
MOLT-4 = test system: MOLT-4
Malme-3M = test system: Malme-3M
NCI-H226 = test system: NCI-H226
NCI-H23 = test system: NCI-H23
NCI-H522 = test system: NCI-H522
NCI/ADR-RES = test system: NCI/ADR-RES
OVCAR-3 = test system: OVCAR-3
OVCAR-4 = test system: OVCAR-4
OVCAR-5 = test system: OVCAR-5
OVCAR-8 = test system: OVCAR-8
PC-3 = test system: PC-3
RPMI-8226 = test system: RPMI-8226
RXF 393 = test system: RXF 393
SF-268 = test system: SF-268
SF-295 = test system: SF-295
SK-MEL-28 = test system: SK-MEL-28
SK-MEL-2 = test system: SK-MEL-2
SK-MEL-5 = test system: SK-MEL-5
SK-OV-3 = test system: SK-OV-3
SN12C = test system: SN12C
SNB-19 = test system: SNB-19
SNB-75 = test system: SNB-75
SR = test system: SR
SW-620 = test system: SW-620
T47D = test system: T47D
TK-10 = test system: TK-10
U-251 = test system: U-251
UACC-257 = test system: UACC-257
UACC-62 = test system: UACC-62
UO-31 = test system: UO-31
HCC 2998 = test system: HCC 2998
HL-60 = test system: HL-60
MCF7 = test system: MCF7
NCI-H460 = test system: NCI-H460
SF-539 = test system: SF-539

CC(=O)C(=N\Nc1ccc(Cl)cc1)/C(C)=N/c1ccc(C)cc1
GI50 (786-0): 37.2 µM (inactive) | GI50 (A498): 11.9 µM (inactive) | GI50 (A549): 29.3 µM (inactive) | GI50 (ACHN): 21.9 µM (inactive) | GI50 (BT-549): 51.4 µM (inactive) | GI50 (CAKI-1): 49.3 µM (inactive) | GI50 (CCRF-CEM): 11.2 µM (inactive) | GI50 (COLO 205): 21.3 µM (inactive) | GI50 (DU-145): 30.8 µM (inactive) | GI50 (EKVX): 21.3 µM (inactive) | GI50 (HCT-116): 36.8 µM (inactive) | GI50 (HCT-15): 45.6 µM | GI50 (HOP-62): > 10 µM (inactive) | GI50 (HOP-92): 16.6 µM (inactive) | GI50 (HT-29): 22.5 µM (inactive) | GI50 (Hs-578T): 44.4 µM (inactive) | GI50 (IGROV-1): 32.7 µM (inactive) | GI50 (K562): 33 µM (inactive) | GI50 (KM12): 27.1 µM (inactive) | GI50 (LOX IMVI): 45 µM (inactive) | GI50 (M14): 22.1 µM (inactive) | GI50 (MDA-MB-231): 37.5 µM (inactive) | GI50 (MDA-MB-435): 30.4 µM (inactive) | GI50 (MDA-N): 31.9 µM (inactive) | GI50 (MOLT-4): 16.7 µM (inactive) | GI50 (Malme-3M): 20.7 µM (inactive) | GI50 (NCI-H226): 29.6 µM (inactive) | GI50 (NCI-H23): 38.1 µM (inactive) | GI50 (NCI-H522): 19.7 µM (inactive) | GI50 (NCI/ADR-RES): 25.6 µM (inactive) | GI50 (OVCAR-3): 24.6 µM (inactive) | GI50 (OVCAR-4): > 100 µM (inactive) | GI50 (OVCAR-5): 34 µM (inactive) | GI50 (OVCAR-8): 35.6 µM (inactive) | GI50 (PC-3): 28.6 µM (inactive) | GI50 (RPMI-8226): 18.7 µM (inactive) | GI50 (RXF 393): 23 µM (inactive) | GI50 (SF-268): 35.6 µM (inactive) | GI50 (SF-295): 32.4 µM (inactive) | GI50 (SK-MEL-28): 48.8 µM (inactive) | GI50 (SK-MEL-2): 18.4 µM (inactive) | GI50 (SK-MEL-5): 19 µM (inactive) | GI50 (SK-OV-3): 46 µM (inactive) | GI50 (SN12C): 45.7 µM (inactive) | GI50 (SNB-19): 63.1 µM (inactive) | GI50 (SNB-75): 44 µM (inactive) | GI50 (SR): > 100 µM (inactive) | GI50 (SW-620): 41.6 µM (inactive) | GI50 (T47D): 38.5 µM (inactive) | GI50 (TK-10): 33.5 µM (inactive) | GI50 (U-251): 31.6 µM (inactive) | GI50 (UACC-257): 53.2 µM (inactive) | GI50 (UACC-62): 49.1 µM (inactive) | GI50 (UO-31): 30.1 µM (inactive)

Cc1cccc(C(C)C)c1NC(=O)C(=O)CC(=O)c1sc(Nc2ccccc2Cl)nc1C
GI50 (786-0): 32.8 µM (inactive) | GI50 (A498): > 100 µM (inactive) | GI50 (A549): 31.4 µM (inactive) | GI50 (ACHN): 51.4 µM (inactive) | GI50 (BT-549): 32.7 µM (inactive) | GI50 (CAKI-1): 85.3 µM (inactive) | GI50 (CCRF-CEM): 30.3 µM (inactive) | GI50 (COLO 205): 29.9 µM (inactive) | GI50 (DU-145): 71.4 µM (inactive) | GI50 (EKVX): 52.2 µM (inactive) | GI50 (HCC 2998): 11.6 µM (inactive) | GI50 (HCT-116): 8.79 µM (inactive) | GI50 (HCT-15): 30.9 µM | GI50 (HL-60): 16.1 µM (inactive) | GI50 (HOP-62): > 100 µM (inactive) | GI50 (HOP-92): 10.4 µM (inactive) | GI50 (Hs-578T): 21.9 µM (inactive) | GI50 (IGROV-1): 46.3 µM (inactive) | GI50 (K562): > 10 µM (inactive) | GI50 (KM12): 23.1 µM (inactive) | GI50 (LOX IMVI): 31.8 µM (inactive) | GI50 (M14): 19.5 µM (inactive) | GI50 (MCF7): 10.3 µM (inactive) | GI50 (MDA-MB-231): 41 µM (inactive) | GI50 (MDA-MB-435): 7.26 µM (inactive) | GI50 (MDA-N): 9.79 µM (inactive) | GI50 (MOLT-4): 25.6 µM (inactive) | GI50 (Malme-3M): > 100 µM (inactive) | GI50 (NCI-H23): 35 µM (inactive) | GI50 (NCI-H460): 22.1 µM (inactive) | GI50 (NCI-H522): 40.5 µM (inactive) | GI50 (OVCAR-3): 32 µM (inactive) | GI50 (OVCAR-4): 83.4 µM (inactive) | GI50 (OVCAR-5): > 100 µM (inactive) | GI50 (PC-3): 22.4 µM (inactive) | GI50 (RPMI-8226): 13.3 µM (inactive) | GI50 (RXF 393): 40.6 µM (inactive) | GI50 (SF-268): 58.2 µM (inactive) | GI50 (SF-295): 12.9 µM (inactive) | GI50 (SF-539): 4 µM (inactive) | GI50 (SK-MEL-28): > 100 µM (inactive) | GI50 (SK-MEL-2): 12.8 µM (inactive) | GI50 (SK-MEL-5): 13.5 µM (inactive) | GI50 (SK-OV-3): 20.7 µM (inactive) | GI50 (SN12C): 64.9 µM (inactive) | GI50 (SNB-19): 56.4 µM (inactive) | GI50 (SNB-75): 21.7 µM (inactive) | GI50 (SR): 18.2 µM (inactive) | GI50 (SW-620): 35.2 µM (inactive) | GI50 (T47D): 35.8 µM (inactive) | GI50 (TK-10): 90.2 µM (inactive) | GI50 (U-251): 23.1 µM (inactive) | GI50 (UACC-257): 54.5 µM (inactive) | GI50 (UACC-62): 42.4 µM (inactive) | GI50 (UO-31): 18.9 µM (inactive)

COc1ccc2[nH]c3c([N+](=O)[O-])ccc(Cl)c3c(=O)c2c1
GI50 (786-0): 16.7 µM (inactive) | GI50 (A498): 91.2 µM (inactive) | GI50 (A549): 62.4 µM (inactive) | GI50 (ACHN): 15.8 µM (inactive) | GI50 (BT-549): 17.2 µM (inactive) | GI50 (CAKI-1): 23.2 µM (inactive) | GI50 (CCRF-CEM): 2.12 µM (inactive) | GI50 (COLO 205): 17 µM (inactive) | GI50 (DU-145): 47.3 µM (inactive) | GI50 (EKVX): 44.1 µM (inactive) | GI50 (HCC 2998): 28.9 µM (inactive) | GI50 (HCT-116): 13.7 µM (inactive) | GI50 (HCT-15): 14.2 µM | GI50 (HL-60): 3.02 µM (inactive) | GI50 (HOP-62): 26.7 µM (inactive) | GI50 (HOP-92): 14 µM (inactive) | GI50 (HT-29): 16.3 µM (inactive) | GI50 (Hs-578T): 30.3 µM (inactive) | GI50 (IGROV-1): 13.1 µM (inactive) | GI50 (K562): 2.99 µM (inactive) | GI50 (KM12): > 45.5 µM (inactive) | GI50 (LOX IMVI): 7.71 µM (inactive) | GI50 (M14): 15.8 µM (inactive) | GI50 (MCF7): 25.1 µM (inactive) | GI50 (MDA-MB-231): 18 µM (inactive) | GI50 (MDA-MB-435): 21 µM (inactive) | GI50 (MDA-N): 21.2 µM (inactive) | GI50 (MOLT-4): 3.52 µM (inactive) | GI50 (Malme-3M): 19.6 µM (inactive) | GI50 (NCI-H226): 34.4 µM (inactive) | GI50 (NCI-H23): 24.8 µM (inactive) | GI50 (NCI-H460): 29 µM (inactive) | GI50 (NCI-H522): 19 µM (inactive) | GI50 (NCI/ADR-RES): 25.6 µM (inactive) | GI50 (OVCAR-3): 16.8 µM (inactive) | GI50 (OVCAR-4): 15.4 µM (inactive) | GI50 (OVCAR-5): > 43 µM (inactive) | GI50 (OVCAR-8): 22 µM (inactive) | GI50 (PC-3): 22.5 µM (inactive) | GI50 (RPMI-8226): 17.4 µM (inactive) | GI50 (RXF 393): 13.6 µM (inactive) | GI50 (SF-268): 20.8 µM (inactive) | GI50 (SF-295): 38 µM (inactive) | GI50 (SF-539): 17.9 µM (inactive) | GI50 (SK-MEL-28): 27.2 µM (inactive) | GI50 (SK-MEL-2): 22.1 µM (inactive) | GI50 (SK-MEL-5): 23.9 µM (inactive) | GI50 (SK-OV-3): > 63.1 µM (inactive) | GI50 (SN12C): 22.9 µM (inactive) | GI50 (SNB-19): 51.4 µM (inactive) | GI50 (SW-620): 7.67 µM (inactive) | GI50 (T47D): 29.2 µM (inactive) | GI50 (TK-10): 20.2 µM (inactive) | GI50 (U-251): 25.4 µM (inactive) | GI50 (UACC-257): 11.5 µM (inactive) | GI50 (UACC-62): 18 µM (inactive) | GI50 (UO-31): 17.3 µM (inactive)
